Results taken from patent publication US7273846B2, “Selective melanin-concentrating hormone type-1 receptor agonists” (priority 2002, dated 2007).
Residues, ends and D or L forms follow the SMILES beside them.

Tests used:
[1] = molecular target: T1, MCH-1R (Homo sapiens, UniProt Q99705)
[2] = molecular target: T1, MCH-1R; assay: biochemical
[3] = molecular target: T1, MCH-1R; assay: Aequorin bioluminescence functional assay, 293AEQ17/MCH-1R cells; type: cell-based; set-up: expressed in transfected cells; details: for MCH-1R Activation %: human MCH = 100, activation at 10 μM concentration; for EC50: aequorin, 293AEQ17/MCH-1R cells, read-out: MCH-1R EC50
Description: (§1) The aequorin bioluminescence assay is a reliable test for identifying G-protein-coupled receptors that couple through the G protein subunit family consisting of Gq and G11. Gq and G11 coupling leads to the activation of phospholipase C, mobilization of intracellular calcium, and activation of protein kinase C.
Stable cell lines expressing either the MCH-1R or the MCH-2R and the aequorin reporter protein were used. The assay was performed using a Luminoskan RT luminometer (Labsystems Inc., Gaithersburg, Md.) controlled by custom software written for a Macintosh PowerPC 6100.
(§2) The cells were harvested, washed once in ECB medium, and resuspended to 500,000 cells/mL. 100 μL of cell suspension (corresponding to 5×10^4 cells) was then injected into the test plate containing the hMCH peptides, and the integrated light emission was recorded over 30 seconds, in 0.5-s units. 20 μL of lysis buffer (0.1% final Triton X-100 concentration) was then injected and the integrated light emission recorded over 10 seconds, in 0.5-s units. The “fractional response” values for each well were calculated by taking the ratio of the integrated response to the initial challenge to the total integrated luminescence including the Triton X-100 lysis response.

[4] = molecular target: T2, MCH-2R (Homo sapiens, UniProt Q969V1); assay: Aequorin bioluminescence functional assay, 293AEQ17/MCH-2R cells; type: cell-based; set-up: expressed in transfected cells; MCH-2R Activation %: concentration or dose not given beside the values; details: for MCH-2R Activation %: human MCH = 100
T2 sequence (Q969V1 whole entry): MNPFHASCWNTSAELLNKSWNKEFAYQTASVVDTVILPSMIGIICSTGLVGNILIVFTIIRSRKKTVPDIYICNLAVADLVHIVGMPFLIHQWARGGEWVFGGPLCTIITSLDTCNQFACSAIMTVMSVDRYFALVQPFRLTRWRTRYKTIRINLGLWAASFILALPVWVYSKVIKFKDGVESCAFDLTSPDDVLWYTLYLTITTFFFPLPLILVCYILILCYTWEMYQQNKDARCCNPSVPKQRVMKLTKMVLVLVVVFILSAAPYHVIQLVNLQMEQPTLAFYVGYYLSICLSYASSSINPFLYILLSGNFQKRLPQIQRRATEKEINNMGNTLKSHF
Excerpt: as §1
Stable cell lines expressing either the MCH-1R or the MCH-2R and the aequorin reporter protein were used.
as §2

[5] = molecular target: T2, MCH-2R; assay: Radioligand binding assay (SPA), MCH-2R

T1 sequence (Q99705 whole entry): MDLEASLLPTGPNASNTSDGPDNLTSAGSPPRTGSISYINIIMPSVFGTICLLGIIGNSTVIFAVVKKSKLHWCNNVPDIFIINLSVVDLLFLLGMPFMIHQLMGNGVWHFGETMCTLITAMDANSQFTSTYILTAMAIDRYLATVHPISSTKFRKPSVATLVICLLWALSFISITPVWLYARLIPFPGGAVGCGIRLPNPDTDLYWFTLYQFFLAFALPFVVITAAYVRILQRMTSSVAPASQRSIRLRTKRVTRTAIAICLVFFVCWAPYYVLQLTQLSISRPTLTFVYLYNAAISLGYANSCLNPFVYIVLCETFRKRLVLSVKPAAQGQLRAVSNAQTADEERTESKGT

Structure (SMILES) | binding to hMCH-1R in words [1] | Selectivity 2/1 (MCH-2R/MCH-1R IC50 binding ratio) [1] | IC50 [2] | Selectivity 2/1 (MCH-2R/MCH-1R EC50 activity ratio) [3] | MCH-1R Activation % [3] | EC50 ([4]; aequorin, 293AEQ17/MCH-2R cells) | MCH-2R Activation % [4] | fold weaker binding at hMCH-2R ([5]; relative to Ac-hMCH(6-16)-NH2) | EC50 [3] | IC50 ([5]; MCH-2R IC50, [125I]-[Phe13,Tyr19]-hMCH SPA, COS or CHO MCH-2R membranes) | fold more selective as agonist for hMCH-1R than hMCH-2R [3] | agonism at hMCH-1R in words [3]
CSCC[C@@H]1NC(=O)[C@@H](NC(=O)[C@H](N)CCCNC(=N)N)CSSC[C@@H](C(N)=O)NC(=O)[C@@H]2CCCN2C(=O)[C@H](CCCNC(=N)N)NC(=O)[C@H](Cc2ccc(O)cc2)NC(=O)[C@H](C(C)C)NC(=O)[C@H](CCCNC(=N)N)NC(=O)CNC(=O)[C@H](CC(C)C)NC1=O [SEQ. ID. NO. 4] | equipotent to Ac-hMCH(6-16)-NH2 | 130 | 35 nM | 0.5 | 130% | 55 nM | 83% | more than 10 fold |  |  |  | 
CSCC[C@@H]1NC(=O)[C@@H](NC(=O)[C@H](CCCNC(=N)N)NC(C)=O)CSSC[C@@H](C(N)=O)NC(=O)[C@@H]2CCCN2C(=O)[C@H](CCCNC(=N)N)NC(=O)[C@H](Cc2ccc(O)cc2)NC(=O)[C@H](C(C)C)NC(=O)[C@H](CCCNC(=N)N)NC(=O)[C@H](Cc2ccccc2)NC(=O)[C@H](CC(C)C)NC1=O [SEQ. ID. NO. 20] (HELM PEPTIDE1{[ac].R.C.M.L.F.R.V.Y.R.P.C.[am]}$PEPTIDE1,PEPTIDE1,3:R3-12:R3$$$V2.0) |  | 19 | 0.1 nM | 0.75 | 75% |  | 88% |  | 66 nM | 1.9 nM |  | 
CSCC[C@@H]1NC(=O)[C@@H](NC(=O)[C@H](CCCNC(=N)N)NC(C)=O)CSSC[C@@H](C(N)=O)NC(=O)[C@@H]2CCCN2C(=O)[C@H](CCCNC(=N)N)NC(=O)[C@H](Cc2ccc(O)cc2)NC(=O)[C@H](C(C)C)NC(=O)[C@H](CCCNC(=N)N)NC(=O)[C@H](CC(N)=O)NC(=O)[C@H](CC(C)C)NC1=O [SEQ. ID. NO. 25] (HELM PEPTIDE1{[ac].R.C.M.L.N.R.V.Y.R.P.C.[am]}$PEPTIDE1,PEPTIDE1,3:R3-12:R3$$$V2.0) |  | 1800 | 0.28 nM | 4.7 | 126% |  | 86% |  | 51 nM |  |  | 

More lines, main results first:

binding to hMCH-1R in words [1] | Selectivity 2/1 (MCH-2R/MCH-1R IC50 binding ratio) [1] | IC50 [2] | Selectivity 2/1 (MCH-2R/MCH-1R EC50 activity ratio) [3] | MCH-1R Activation % [3] | EC50 ([4]; aequorin, 293AEQ17/MCH-2R cells) | MCH-2R Activation % [4] | fold weaker binding at hMCH-2R ([5]; relative to Ac-hMCH(6-16)-NH2) | EC50 [3] | IC50 ([5]; MCH-2R IC50, [125I]-[Phe13,Tyr19]-hMCH SPA, COS or CHO MCH-2R membranes) | fold more selective as agonist for hMCH-1R than hMCH-2R [3] | Structure (SMILES) | agonism at hMCH-1R in words [3]
 | 6600 | 0.5 nM | 150 | 120% |  | 20% |  |  |  | about 150 fold | CSCC[C@@H]1NC(=O)[C@@H](NC(=O)[C@@H](CCCNC(=N)N)NC(C)=O)CSSC[C@@H](C(N)=O)NC(=O)[C@@H]2CCCN2C(=O)[C@H](CCCNC(=N)N)NC(=O)[C@H](Cc2ccc(O)cc2)NC(=O)[C@H](C(C)C)NC(=O)[C@H](CCCNC(=N)N)NC(=O)[C@H](CC(N)=O)NC(=O)[C@H](CC(C)C)NC1=O [SEQ. ID. NO. 29] (HELM PEPTIDE1{[ac].[dR].C.M.L.N.R.V.Y.R.P.C.[am]}$PEPTIDE1,PEPTIDE1,3:R3-12:R3$$$V2.0) | activated hMCH-1R almost as efficiently as Ac-hMCH(6-16)NH2
 | 5700 | 0.28 nM | 23 | 130% |  | 23% |  |  |  |  | CCCC[C@@H]1NC(=O)[C@@H](NC(=O)[C@@H](CCCNC(=N)N)NC(C)=O)CSSC[C@@H](C(N)=O)NC(=O)[C@@H]2CCCN2C(=O)[C@H](CCCNC(=N)N)NC(=O)[C@H](Cc2ccc(O)cc2)NC(=O)[C@H](C(C)C)NC(=O)[C@H](CCCNC(=N)N)NC(=O)[C@H](CC(N)=O)NC(=O)[C@H](CC(C)C)NC1=O [SEQ. ID. NO. 31] (HELM PEPTIDE1{[ac].[dR].C.[Nle].L.N.R.V.Y.R.P.C.[am]}$PEPTIDE1,PEPTIDE1,3:R3-12:R3$$$V2.0) | potent and selective hMCH-1R agonists
